{"source": "patent US10456441B2", "about": "“Augmenting the immune response by promoting cell death of immune cells” (The University of Vermont and State Agricultural College, priority 2014, dated 2019)", "test_system": "γδ T cells", "assay": "Cell death of γδ T cells by TUNEL assay", "type": "cell-based, mice", "conditions": "50 μM zVAD", "procedure": "Spleens were isolated and disrupted through nylon mesh in RPMI 1640 with 25 mm Hepes (MediaTech, Herndon, Va.) containing 5% (v/v) bovine calf serum (HyClone, Logan, Utah). Erythrocyte lysis of splenocytes was performed using Geys solution. γδ T lymphocytes were enriched by negative selection using a magnetic bead system (Qiagen, Valencia, Calif.) in which splenocytes were incubated with a cocktail of rat monoclonal antibodies to mouse CD4 (clone GK 1.5), CD8 (clone Tib105), class II (clone M5/114/15/2), CD11b (clone M1/70), and B220 (CD45R) (clone RA3-6B2). Cells were washed three times and then rocked with goat anti-rat conjugated magnetic beads at a 10:1 ratio of beads to cell at 4° C. for 45 min. Magnetic depletion was used to remove bead-bound cells. Finally, enriched γδ T cells were resuspended in complete medium (RPMI 1640 (Mediatech, Inc., Herndon, Va., USA), 2.5 mg/ml glucose (Sigma, St. Louis, Mo.), […] folate (Invitrogen, Carlsbad, Calif.), 110 μg/ml pyruvate (Invitrogen), 5×10^−5 M 2-mercaptoethanol (Sigma), 292.3 μg/ml glutamine (Invitrogen), 100 units/ml penicillin-streptomycin (Invitrogen), and 5% bovine calf serum). […] Cells were counted daily and supplied with fresh media containing 50 units/ml IL-2. […]", "note": "Where a SMILES comes first, the peptide text is derived from it. The star is where a group is joined. Cbz = O=C(OCc1ccccc1)*; CH2F = FC*"}
{"compound": "CC(C)[C@H](NC(=O)OCc1ccccc1)C(=O)N[C@@H](C)C(=O)N[C@@H](CC(=O)O)C(=O)CF", "note": "[zVAD, N-benzyloxycarbonyl-Val-Ala-Asp-fluoromethyl ketone] (Cbz-Val-Ala-Asp-CH2F)", "values": [{"measurement": "cell death of γδ T cells", "value": "no increase in cell death"}]}
